The source of these data is publication PMC12530842, “Potent, Selective, and Drug‐Like G Protein‐Coupled Receptor Kinase 5 and 6 Inhibitors: Design, Synthesis, and X‐Ray Structural Studies” (Chemmedchem, 2025).

Usually IC50 stands for the concentration at which inhibition is half-maximal.

Like-named read-outs stand apart in the source and are kept apart here.

One test concerns the target T1, GRK5 (Homo sapiens, UniProt P34947).
T1 construct: Human GR K5 (residues 1- 590) w ild- type and D 311N mutant w ere expressed in E. co li Rosetta; His tag (inferred from nickel-NTA purification); made in house; host or cells: E. coli Rosetta (DE3)
Briefly: GRK5 kinase inhibition assay, phosphorylation of tubulin ([γ-32P]-ATP). The note with it: for Selectivity GRK2/GRK5: fold selectivity for GRK5 over GRK2; for IC50: phosphorylation of the soluble substrate tubulin, ± standard deviation from 3 to 4 independent experiments. It is filed as biochemical. On the procedure:
(§1) The inhibitory potency of synthetic compounds containing the N‐heterocyclic amide functionalities was evaluated against human GRK2, GRK5 and GRK6 using our in vitro assays‐, as reported previously.^[ [35], [37] ^] […] We then investigated the effect of (R)‐ and (S)‐Boc pyrrolidine carboxamide derivatives. […] These improvements of GRK5 IC50 values over their Boc‐derivatives (6c and 6d) indicated the bulky Boc group may not be able to fit as well in the catalytic site of these GRKs. On the other hand, sterically less demanding acetamide derivatives 6e and 6f were well accommodated consistent with their very good activity against GRK5, GRK6, and GRK2, but only with marginal selectivity against GRK2. […] We also examined the effect of 3(S)‐ and 3(R)‐Boc‐pyrrolidine derivatives.
(§2) Protein expression and purification.
(§3) Human GR K5 (residues 1- 590) w ild- type and D 311N mutant w ere expressed in E. co li Rosetta (D E3) and purified v ia nickel-nitrilotriacetic acid affinity chromatography, followed by tandem columns consisting of a HiTrap Q HP anion exchange chromatography column and a HiTrap SP HP cation exchange chromatography column, and finished by Superdex 200 Increase size -exclusion chromatography, as described previously. Human GRK6 (with T10A and mutations that eliminate palmitoylation sites) was expressed in Sf9 insect cells [ 2] and was purified w ith the same protocol for GR K5 [1]. Human GRK2 w as purified as described previously.
(§4) Kinase inhibition Assays.
(§5) Inhibit ion assays were conducted in a reaction mixture containing 20 mM H EPES pH 7. 0, 2 mM MgC l2, and 0.025% n- dodecyl-β-D-maltoside. Prior to reaction initiation, GR K5 or GR K6 at 50 nM was mixed w ith porcine brain tubulin ( PurSolutions) at a concentration of 500 nM. The assay w as started w ith a 30- second incubation of inhibitors, followed by the add it ion of 5 μ M ATP supplemented w ith radioactive [γ-32P]-AT P a t 60 C i/m mol (PerkinElm er Life Sciences). Re actions pro ceeded for 5 m inut es at ro o m te mpera ture a nd were terminated by adding 4X SDS loading buffer. T he reaction mixtures were then s eparated via SDS - PAG E, dried, and exposed using a phosphor imaging screen. Quantification was performed using a Personal Molecular Imager and Quantity One 1- D Analysis Software. Analogous inhibition assays were conducted on p urified GR K2 wit h a t ub ulin conce ntrat ion of 1 μ M. Data ana lysis was perf orme d usin g Graph Pa d Pr ism, and IC50 values wer e calculated based on three- parameter dose- dependent curves (with a Hill coefficient fixed at 1) plotting phosphate transfer against inhibitor concentration. At least three replicates were conducted to determine the mean and standard deviation of IC50 values as published previously . […]
(§6) (6) The final models w ere validated with MolProbity prior to depos ition along with structure factors in the Protein Data Bank. Atomic figures were created with Py mol (7). Cr ystallographic statistics are reported in Supplemental Table 1. Coordinates for inh ib itor 6t (GRL-098- 22) w ere deposited in the Protein Data Bank, with accession code 9BR K.
(§7) 1. Y. Chen, A. Sonawane, R. Manda, R. K. G adi, J. J. G. Tesmer, A. K. Ghosh. Development of a new class of potent and highly select ive G protein- coupled r eceptor kinase 5 inhibitors and structural insight from crystal structures of inhibitor complexes. Eur. J. Med. Chem. 2024, 264, 115931.
(§8) 2. D. T. Lodowski, V. M. T esmer, J. L. Benovic, J. J. Tesmer. The structure of G protein- coupled receptor kinase (GRK)-6 defines a second lineage of GRKs. J. Bio l. C he m. 2006, 281,16785- 16793.

The next test concerns the target T2, GRK6 (Homo sapiens, UniProt P43250, C561S/C562S/C565S/T10A).
T2 construct: His tag (inferred: purified by the GRK5 protocol, which starts with nickel-NTA); made in house; host or cells: Sf9 insect cells
Briefly: GRK6 kinase inhibition assay, phosphorylation of tubulin ([γ-32P]-ATP). Format: biochemical. The note with it: for Selectivity GRK5/GRK6: fold selectivity for GRK6 over GRK5; for IC50: phosphorylation of the soluble substrate tubulin, ± standard deviation from 3 to 4 independent experiments. On the procedure:
as §1, §2, §3, §4, §5, §6, §7, §8

Test [1] addresses T3, GRK2 (Homo sapiens, UniProt P25098).
T3 construct: made in house
T3 sequence (P25098 1-689): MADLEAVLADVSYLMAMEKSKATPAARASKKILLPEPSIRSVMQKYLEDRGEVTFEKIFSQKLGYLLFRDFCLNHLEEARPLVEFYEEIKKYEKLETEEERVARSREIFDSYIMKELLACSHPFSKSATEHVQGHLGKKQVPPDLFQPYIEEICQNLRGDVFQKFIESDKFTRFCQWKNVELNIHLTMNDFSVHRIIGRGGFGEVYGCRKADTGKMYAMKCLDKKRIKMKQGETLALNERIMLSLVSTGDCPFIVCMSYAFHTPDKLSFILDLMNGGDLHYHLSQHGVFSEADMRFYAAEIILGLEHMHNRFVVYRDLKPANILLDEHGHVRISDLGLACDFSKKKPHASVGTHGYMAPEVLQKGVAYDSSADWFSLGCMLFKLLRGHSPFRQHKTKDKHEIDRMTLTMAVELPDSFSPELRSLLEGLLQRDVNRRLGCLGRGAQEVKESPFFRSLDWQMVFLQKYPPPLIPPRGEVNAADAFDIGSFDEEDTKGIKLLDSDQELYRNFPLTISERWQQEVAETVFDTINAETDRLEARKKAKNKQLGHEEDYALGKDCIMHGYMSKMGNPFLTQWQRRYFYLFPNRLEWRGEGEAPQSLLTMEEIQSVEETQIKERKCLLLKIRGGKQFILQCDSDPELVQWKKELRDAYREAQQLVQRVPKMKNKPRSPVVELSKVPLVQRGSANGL
In words: GRK2 kinase inhibition assay, phosphorylation of tubulin ([γ-32P]-ATP). It is filed as biochemical. The conditions noted are these: phosphorylation of the soluble substrate tubulin; ± standard deviation from 3 to 4 independent experiments. The method, then:
as §1, §2, §3, §4, §5, §6, §7, §8

For test [2], the target named is T3, GRK2. The conditions noted are these: earlier work; cited from earlier work.

T2 sequence (P43250 whole entry T10A/C561S/C562S/C565S): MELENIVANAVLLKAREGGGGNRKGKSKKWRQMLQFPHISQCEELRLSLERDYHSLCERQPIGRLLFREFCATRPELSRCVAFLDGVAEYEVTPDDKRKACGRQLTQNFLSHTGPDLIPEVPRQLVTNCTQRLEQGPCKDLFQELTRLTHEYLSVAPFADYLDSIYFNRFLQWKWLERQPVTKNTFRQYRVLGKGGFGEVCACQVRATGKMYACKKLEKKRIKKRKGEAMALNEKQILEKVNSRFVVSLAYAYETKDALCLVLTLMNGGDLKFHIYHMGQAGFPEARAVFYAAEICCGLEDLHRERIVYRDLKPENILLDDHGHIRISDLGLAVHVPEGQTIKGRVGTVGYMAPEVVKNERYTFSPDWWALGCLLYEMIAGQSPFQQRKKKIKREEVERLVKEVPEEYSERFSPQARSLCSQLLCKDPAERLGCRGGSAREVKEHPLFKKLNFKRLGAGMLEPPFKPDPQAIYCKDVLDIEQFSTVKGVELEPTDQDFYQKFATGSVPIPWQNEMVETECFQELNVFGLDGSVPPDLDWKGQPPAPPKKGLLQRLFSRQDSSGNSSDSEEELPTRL
T1 sequence (P34947 whole entry, the tested form may be a part): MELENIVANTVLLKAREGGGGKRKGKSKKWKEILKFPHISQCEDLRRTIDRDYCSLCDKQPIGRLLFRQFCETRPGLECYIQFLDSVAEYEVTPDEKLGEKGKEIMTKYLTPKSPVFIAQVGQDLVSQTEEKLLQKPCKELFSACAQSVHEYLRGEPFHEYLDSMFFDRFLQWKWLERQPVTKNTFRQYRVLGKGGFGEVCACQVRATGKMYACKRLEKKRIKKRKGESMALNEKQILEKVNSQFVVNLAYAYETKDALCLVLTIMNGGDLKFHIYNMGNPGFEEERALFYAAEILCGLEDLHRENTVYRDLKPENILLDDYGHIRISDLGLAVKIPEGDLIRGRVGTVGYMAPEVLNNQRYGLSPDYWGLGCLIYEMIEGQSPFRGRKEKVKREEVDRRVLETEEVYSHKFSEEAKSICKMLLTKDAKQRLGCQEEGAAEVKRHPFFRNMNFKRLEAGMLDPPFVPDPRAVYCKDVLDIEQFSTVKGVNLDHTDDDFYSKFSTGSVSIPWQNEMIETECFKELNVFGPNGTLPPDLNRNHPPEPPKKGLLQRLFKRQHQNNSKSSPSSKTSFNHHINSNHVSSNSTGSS

Regarding `Cc1[nH]c(/C=C2\C(=O)Nc3ccc(C(=O)N[C@H](C)c4ccc(F)cc4)cc32)c(C)c1NC(=O)[C@H]1CN(C(=O)OC(C)(C)C)CCN1` [6s, Tert‐Butyl(R)‐3‐((5‐(((Z)‐5‐(((R)‐1‐(4‐Fluorophenyl)Ethyl)Carbamoyl)‐2‐Oxoindolin‐3‐Ylidene)Methyl)‐2,4‐Dimethyl‐1H‐Pyrrol‐3‐Yl)Carbamoyl)Piperazine‐1‐Carboxylate], at GRK5, the “Selectivity GRK2/GRK5” value was determined as 430 fold and inhibition was half-maximal at 0.081 ± 0.01 µM (IC50). Moreover, on GRK6, the “Selectivity GRK5/GRK6” value worked out at 1 fold and the IC50 was found to be 0.06 ± 0.02 µM. Also, the IC50 against GRK2 [1] stood at 35 ± 9.4 µM.
For `Cc1[nH]c(/C=C2\C(=O)Nc3ccc(C(=O)N[C@H](C)c4ccc(F)cc4)cc32)c(C)c1NC(=O)[C@@H]1CN(C(=O)OC(C)(C)C)CCN1` [6t, Tert‐Butyl(S)‐3‐((5‐(((Z)‐5‐(((R)‐1‐(4‐Fluorophenyl)Ethyl)Carbamoyl)‐2‐Oxoindolin‐3‐Ylidene)Methyl)‐2,4‐Dimethyl‐1H‐Pyrrol‐3‐Yl)Carbamoyl)Piperazine‐1‐Carboxylate], in that order: greater than 1600 fold, 0.6 ± 0.1 µM, 7 fold, 0.09 µM and greater than 1000 µM.
Consider `Cc1[nH]c(/C=C2\C(=O)Nc3ccc(C(=O)N[C@H](C)c4ccc(F)cc4)cc32)c(C)c1NC(=O)[C@H]1CNCCN1` [6u, (Z)‐3‐((3,5‐Dimethyl‐4‐((R)‐Piperazine‐2‐Carboxamido)‐1 H‐Pyrrol‐2‐Yl)Methylene)‐N‐((R)‐1‐(4‐Fluorophenyl)Ethyl)‐2‐Oxoindoline‐5‐Carboxamide], for which the “Selectivity GRK2/GRK5” value on GRK5 came out at 15 fold. In addition, the values for the IC50 at GRK5, at GRK6 and on GRK2 [1] were 0.014 ± 0.001 µM, 0.05 µM and 0.21 ± 0.1 µM, respectively.
Consider `Cc1[nH]c(/C=C2\C(=O)Nc3ccc(C(=O)N[C@H](C)c4ccc(F)cc4)cc32)c(C)c1NC(=O)[C@@H]1CNCCN1` [6v, (Z)‐3‐((3,5‐Dimethyl‐4‐((S)‐Piperazine‐2‐Carboxamido)‐1H‐Pyrrol‐2‐Yl)Methylene)‐N‐((R)‐1‐(4‐Fluorophenyl)Ethyl)‐2‐Oxoindoline‐5‐Carboxamide], for which, on GRK5, the “Selectivity GRK2/GRK5” value turned out to be 10 fold and the IC50 turned out to be 0.016 ± 0.0005 µM. At GRK6, the “Selectivity GRK5/GRK6” value was 1 fold and inhibition was half-maximal at 0.026 ± 0.02 µM (IC50). This molecule gave an IC50 against GRK2 [1] of 0.19 ± 0.1 µM.
In the case of `Cc1[nH]c(/C=C2\C(=O)Nc3ccc(C(=O)N[C@H](C)c4ccc(F)cc4)cc32)c(C)c1NC(=O)CCl` [compound 1], the IC50 on GRK2 [2] is 1.2 µM.
